Like-named read-outs stand apart in the source and are kept apart here.
System: AMPA receptor
[1] = Table 1, primary culture of rat embryo cerebral cortex nerve cells, 2 μM AMPA, 1 μM MK-801
[2] = Table 2, suppression of AMPA-induced calcium influx into nerve cells
[3] = Table 3, primary culture of rat embryo cerebral cortex nerve cells, 2 μM AMPA, 1 μM MK-801
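Further: primary rat embryonic cortical neurons grown on an astrocyte layer in 96-well plates, used after at least 8 to 10 days in culture, Fura2-AM fluorescence ratio at 340/380 nm excitation.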

Description: Cerebral cortex was cut out from the brain of rat of gestational 18 days and treated with trypsin and DNase to disperse the cells. The cells were flown by MEM containing 10% of serum, sown in a culture bottle and astrocytes were proliferated. The astrocytes were re-dispersed by trypsin and sown in a 96-well plate. After incubation for one week, it was confirmed that the astrocytes covered all over the bottom and then the nerve cells of cerebral cortex which was dispersed by the above method were sown thereupon. After incubation for 24 hours, the medium was changed, the incubation was carried out for one week and, after that, the medium was changed to that containing 1 μM of MK-801. Nerve cells which were incubated for not shorter than 8 to 10 days were used.
Calcium influx into the cells was measured using Fura2-AM which was a calcium-sensitive fluorescent dye. It was treated in a medium containing Fura2-AM for 1 hour, incorporated into the cells, exchanged to a Tyrode solution containing 1 μM MK-801 and stimulation was carried out using 2 μM AMPA. Change in the amount of calcium flown into the cells were measured as the change in the fluorescent intensity at the exciting wave length of 340/380 nm.

Row | IC50 [2] | Structure (SMILES) | IC50 [1] | further results
1 |  | COc1cccc(-n2cc(-c3ccccn3)cc(-c3ccccc3C#N)c2=O)c1 [Example 96, 3-(2-Cyanophenyl)-5-(2-pyridyl)-1-(3-methoxyphenyl)-1,2-dihydropyridin-2-one] | 0.06 µM | 
2 | 0.3 µM | O=Cc1sccc1-c1cc(-c2ccccn2)cn(-c2ccccc2)c1=O [Example 286, 3-(2-Formylthiophen-3-yl)-5-(2-pyridyl)-1-phenyl-1,2-dihydropyridin-2-one] |  | 
3 |  | O=c1c(-c2ccccn2)cc(-c2ccccn2)cn1-c1ccccc1 [Example 62, 3-(2-Pyridyl)-5-(2-pyridyl)-1-phenyl-1,2-dihydropyridin-2-one] | 3.1 µM | 
4 | 7.1 µM | Nc1ccc(-c2cc(-c3ccccn3)cn(-c3ccccc3)c2=O)cc1 [Example 221, 3-(4-Aminophenyl)-1-phenyl-5-(2-pyridyl)-1,2-dihydropyridin-2-one] |  | 
5 | 0.6 µM | Nc1cccc(-c2cc(-c3ccccn3)cn(-c3ccccc3)c2=O)c1 [Example 220, 3-(3-Aminophenyl)-1-phenyl-5-(2-pyridyl)-1,2-dihydropyridin-2-one] |  | 
6 |  | COC(=O)c1ccccc1-c1cc(-c2ccccn2)cn(-c2ccccc2)c1=O [Example 58, 3-(2-Methoxycarbonylphenyl)-5-(2-pyridyl)-1-phenyl-1,2-dihydropyridin-2-one] | 0.1 µM | 
7 |  | N#Cc1ccccc1-c1cc(-c2ccccn2)cn(C2CCCN(Cc3ccccc3)C2)c1=O (centres unmarked) [Example 379-B, 3-(2-Cyanophenyl)-5-(2-pyridyl)-1-(N-benzylpiperidin-3-yl)-1,2-dihydropyridin-2-one] |  | IC50 [3]: 6.4 µM
8 |  | N#Cc1cccc(-c2cc(-c3ccccc3)cn(-c3cccnc3)c2=O)n1 [Example 79, 3-(6-Cyano-2-pyridyl)-5-phenyl-1-(3-pyridyl)-1,2-dihydropyridin-2-one] | 2.6 µM | 
9 | 8.5 µM | O=c1c(Sc2ccc(Cl)cc2)cc(-c2ccccn2)cn1-c1ccccc1 [Example 188, 3-(4-Chlorophenylthio)-5-(2-pyridyl)-1-phenyl-1,2-dihydropyridin-2-one] |  | 
10 |  | CSc1ccc(-n2cc(-c3ccccn3)cc(-c3cccnc3F)c2=O)cc1 [Example 84, 3-(2-Fluoro-3-pyridyl)-5-(2-pyridyl)-1-(4-methylthiophenyl)-1,2-dihydropyridin-2-one] | 0.9 µM | 
11 | 2.8 µM | CC(C)(C)NS(=O)(=O)c1ccc(-c2cc(-c3ccccn3)cn(-c3ccccc3)c2=O)cc1 [Example 278, 3-[4-(tert-Butylaminosulfonyl)phenyl]-1-phenyl-5-(2-pyridyl)-1,2-dihydropyridin-2-one] |  | 
12 |  | Cc1ccccc1-c1cc(-c2ccccn2)cn(-c2ccccc2)c1=O [Example 60, 3-(2-Tolyl)-5-(2-pyridyl)-1-phenyl-1,2-dihydropyridin-2-one] | 1.7 µM | 
13 |  | N#Cc1ccccc1-c1cc(-c2ccccn2)cn(-c2cccc(OC3CCNCC3)c2)c1=O [Example 330, 3-(2-Cyanophenyl)-1-[3-(4-piperidyloxy)]phenyl-5-(2-pyridyl)-1,2-dihydropyridin-2-one] |  | IC50 [3]: 0.4 µM
14 | 6 µM | N#Cc1ccccc1-c1cc(-c2nc3ccccc3n2-c2ccccc2)cn(-c2ccccc2)c1=O [Example 182, 3-(2-Cyanophenyl)-5-(1-phenylbenzimidazol-2-yl)-1-phenyl-1,2-dihydropyridin-2-one] |  | 
15 | 1 µM | O=c1c(-c2cscn2)cc(-c2ccccn2)cn1-c1ccccc1 [Example 267, 1-Phenyl-5-(2-pyridyl)-3-(thiazol-4-yl)-1,2-dihydropyridin-2-one] |  | 
16 |  | N#Cc1ccccc1-c1cc(-c2cccs2)cn(-c2ccccc2)c1=O [Example 46, 3-(2-Cyanophenyl)-5-(thiophen-2-yl)-1-phenyl-1,2-dihydropyridin-2-one] | 0.4 µM | 
17 | 0.9 µM | CN(C)c1ccc(-c2cc(-c3ccccn3)cn(-c3ccccc3)c2=O)cc1 [Example 234, 3-(4-Dimethylaminophenyl)-1-phenyl-5-(2-pyridyl)-1,2-dihydropyridin-2-one] |  | 
18 |  | O=c1c(C2C3CC4CC(C3)CC2C4)cc(-c2ccccn2)cn1-c1ccccc1 (centres unmarked) [Example 387, 3-(2-Adamantyl)-5-(2-pyridyl)-1-phenyl-1,2-dihydropyridin-2-one] |  | IC50 [3]: 7 µM
19 |  | O=c1c(-c2ccccc2Cl)cc(Sc2ccc(Cl)cc2)cn1-c1cccnc1 [Example 385, 3-(2-Chlorophenyl)-5-(4-chlorophenylthio)-1-(3-pyridyl)-1,2-dihydropyridin-2-one] |  | IC50 [3]: 1.1 µM
20 | 9 µM | O=c1c(-c2cccc3cccnc23)cc(-c2ccccn2)cn1-c1ccccc1 [Example 282, 3-(8-Quinolinyl)-5-(2-pyridyl)-1-phenyl-1,2-dihydropyridin-2-one] |  | 
21 |  | Cc1ccc(-n2cc(-c3ccccn3)cc(-c3ccccc3C#N)c2=O)cc1 [Example 107, 3-(2-Cyanophenyl)-5-(2-pyridyl)-1-(4-tolyl)-1,2-dihydropyridin-2-one] | 0.07 µM | 
22 |  | COc1ccc(-c2cc(-c3ccccn3)cn(-c3ccccc3)c2=O)cc1 [Example 70, 3-(4-Methoxyphenyl)-5-(2-pyridyl)-1-phenyl-1,2-dihydropyridin-2-one] | 3.1 µM | 

Row | IC50 [2] | Structure (SMILES) | IC50 [1] | further results
23 | 3.3 µM | CC(=O)c1ccccc1-c1cc(-c2ccccn2)cn(-c2ccccc2)c1=O [Example 272, 3-(2-Acetylphenyl)-5-(2-pyridyl)-1-phenyl-1,2-dihydropyridin-2-one] |  | 
24 |  | O=c1c(-c2ccccc2)cc(-c2ccccn2)cn1-c1cccnc1 [Example 127, 3-Phenyl-5-(2-pyridyl)-1-(3-pyridyl)-1,2-dihydropyridin-2-one] | 0.4 µM | 
25 | 2.7 µM | COc1cccc(-c2cc(-c3ccccn3)cn(-c3ccccc3)c2=O)n1 [Example 260, 3-(2-Methoxypyridin-6-yl)-1-phenyl-5-(2-pyridyl)-1,2-dihydropyridin-2-one] |  | 
26 |  | O=C(NC1CCCCC1)c1cc(-c2ccccn2)cn(-c2ccccc2)c1=O [Example 344, 3-Cyclohexylaminocarbonyl-5-(2-pyridyl)-1-phenyl-1,2-dihydropyridin-2-one] |  | IC50 [3]: 4.7 µM
27 |  | N#Cc1ccccc1-c1cc(-c2ccsc2CO)cn(-c2ccccc2)c1=O [Example 30, 3-(2-Cyanophenyl)-5-(2-hydroxymethylthiophen-3-yl)-1-phenyl-1,2-dihydropyridin-2-one] | 0.04 µM | 
28 |  | O=c1c(-c2nc3ccccc3n2-c2ccncc2)cc(-c2ccccn2)cn1-c1ccccc1 [Example 356, 3-[1-(Pyridin-4-yl)benzimidazol-2-yl]-5-(2-pyridyl)-1-phenyl-1,2-dihydropyridin-2-one] |  | IC50 [3]: 2.1 µM
29 |  | N#Cc1ccccc1-c1cc(-c2ccccn2)cn(-c2ccsc2)c1=O [Example 105, 3-(2-Cyanophenyl)-5-(2-pyridyl)-1-(thiophen-3-yl)-1,2-dihydropyridin-2-one] | 0.03 µM | 
30 |  | COc1ccncc1-c1cc(-c2ccccn2)cn(-c2ccccc2)c1=O [Example 77, 3-(4-Methoxy-3-pyridyl)-5-(2-pyridyl)-1-phenyl-1,2-dihydropyridin-2-one] | 0.02 µM | 
31 |  | N#Cc1ccccc1-c1cc(-c2nc3cnccc3[nH]2)cn(-c2ccccc2)c1=O [Example 362, 3-(2-Cyanophenyl)-5-(1H-imidazo[4,5-c]pyridin-2-yl)-1-phenyl-1,2-dihydropyridin-2-one] |  | IC50 [3]: 3.7 µM
32 | 0.1 µM | O=c1c(-c2ccccc2Cl)cc(-c2ccccn2)cn1-c1cccc(O)c1 [Example 143, 3-(2-Chlorophenyl)-5-(2-pyridyl)-1-(3-hydroxyphenyl)-1,2-dihydropyridin-2-one] |  | 
33 |  | Cc1ccc(-c2ccccc2)n1-c1cc(-c2ccccn2)cn(-c2ccccc2)c1=O [Example 327, 3-(2-Methyl-5-phenylpyrrol-1-yl)-5-(2-pyridyl)-1-phenyl-1,2-dihydropyridin-2-one] |  | IC50 [3]: 8 µM
34 | 3.7 µM | Nc1ccccc1-c1cc(-c2ccccn2)cn(-c2ccccc2)c1=O [Example 219, 3-(2-Aminophenyl)-1-phenyl-5-(2-pyridyl)-1,2-dihydropyridin-2-one] |  | 
35 |  | COc1ccc(-n2cc(-c3ccccn3)cc(-c3ccccc3Cl)c2=O)cc1 [Example 17, 3-(2-Chlorophenyl)-5-(2-pyridyl)-1-(4-methoxyphenyl)-1,2-dihydropyridin-2-one] | 0.7 µM | 
36 |  | O=c1c(-n2cccc2)cc(-c2ccccn2)cn1-c1ccccc1 [Example 320, 3-(Pyrrol-1-yl)-5-(2-pyridyl)-1-phenyl-1,2-dihydropyridin-2-one] |  | IC50 [3]: 2.3 µM
37 |  | COC(=O)c1cccc(-n2cc(-c3ccccn3)cc(-c3ccccc3C#N)c2=O)c1 [Example 14, 3-(2-Cyanophenyl)-5-(2-pyridyl)-1-(3-methoxycarbonylphenyl)-1,2-dihydropyridin-2-one] | 0.1 µM | 
38 |  | N#Cc1ccccc1-c1cc(-c2ccccn2)cn(-c2cncc(COCc3ccccc3)c2)c1=O [Example 115, 3-(2-Cyanophenyl)-5-(2-pyridyl)-1-(3-benzyloxymethylpyridin-5-yl)-1,2-dihydropyridin-2-one] | 0.06 µM | 
39 | 6.1 µM | O=c1c(-c2ccc([N+](=O)[O-])cc2)cc(-c2ccccn2)cn1-c1ccccc1 [Example 275, 3-(4-Nitrophenyl)-1-phenyl-5-(2-pyridyl)-1,2-dihydropyridin-2-one] |  | 
40 |  | CN(C)CCOc1ccc(-n2cc(-c3ccccn3)cc(-c3ccccc3Cl)c2=O)cc1 [Example 19, 3-(2-Chlorophenyl)-5-(2-pyridyl)-1-(4-dimethylaminoethoxyphenyl)-1,2-dihydropyridin-2-one] | 0.08 µM | 
41 |  | CN1CCC(Oc2cccc(-n3cc(-c4ccccn4)cc(-c4ccccc4C#N)c3=O)c2)CC1 [Example 341, 1-[3-(N-methylpiperidin-4-yl-oxy)phenyl]-3-(2-cyanophenyl)-5-(2-pyridyl)-1,2-dihydropyridin-2-one] |  | IC50 [3]: 0.2 µM
42 |  | N#Cc1ccccc1-c1cc(NC(=O)Nc2ccccc2)cn(-c2ccccc2)c1=O [Example 307, 3-(2-Cyanophenyl)-1-phenyl-5-[N-(N′-phenylureylenyl)]-1,2-dihydropyridin-2-one] |  | IC50 [3]: 2 µM
43 |  | N#Cc1ccccc1-c1cc(-c2ccccn2)cn(-c2ccoc2)c1=O [Example 106] | 0.07 µM | 

Row | Structure (SMILES) | IC50 [2] | IC50 [1] | further results
44 | N#Cc1ccccc1-c1cc(-c2ccccn2)cn(-c2ccc([N+](=O)[O-])cc2)c1=O [Example 252, 3-(2-Cyanophenyl)-1-(4-nitrophenyl)-5-(2-pyridyl)-1,2-dihydropyridin-2-one] | 0.3 µM |  | 
